Activity calls are given as the source filed them. No cut-off for these calls is given here.
Experiments:
[1] = Cytotoxic activity against human SKOV3 cells assessed as inhibition of cell growth after 48 hrs by MTT assay; type: functional, cell-based; details: SK-OV-3, 48 h
[2] = Cytotoxic activity against human Bel7404 cells assessed as inhibition of cell growth after 48 hrs by MTT assay; type: functional, cell-based; details: BEL-7404, 48 h
[3] = system: A549; test: Cytotoxic activity against human A549 cells assessed as inhibition of cell growth after 48 hrs by MTT assay; type: functional, cell-based; details: A549, 48 h
[4] = Cytotoxic activity against human HCT116 cells assessed as inhibition of cell growth after 48 hrs by MTT assay; type: functional, cell-based; details: HCT-116, 48 h
[5] = system: NCI-H460; test: Cytotoxic activity against human NCI-H460 cells assessed as inhibition of cell growth after 48 hrs by MTT assay; type: functional, cell-based; details: NCI-H460, 48 h
[6] = target: Cyclin-dependent kinase 2/cyclin E1 (Homo sapiens, UniProt P24941); test: Inhibition of human recombinant C-terminal His6-tagged full length human Cdk2/human recombinant N-terminal GST-tagged full-length Cyclin E using histone H1 substrate after 40 mins by radiometric filter binding assay; type: protein-complex assay
[7] = system: SK-OV-3; test: Induction of apoptosis in human SKOV3 cells assessed as increase in chromatin condensation at 5 uM after 24 hrs by Hoechst 33258 staining based fluorescence microscopic analysis; type: functional, cell-based
[8] = system: SK-OV-3; test: Induction of apoptosis in human SKOV3 assessed as loss of membrane integrity at 5 uM after 12 to 24 hrs by AO/EB staining based fluorescence microscopic analysis; type: functional
[9] = system: SK-OV-3; test: Induction of ROS generation in human SKOV3 cells at 5 uM after 12 hrs by DCF-DA dye based flow cytometry (reference value: 12.9%); type: functional
[10] = system: SK-OV-3; test: Induction of ROS generation in human SKOV3 cells at 5 uM after 24 hrs by DCF-DA dye based flow cytometry (reference value: 12.9%); type: functional
[11] = system: SK-OV-3; test: Induction of apoptosis in human SKOV3 cells assessed as depolarization of mitochondria at 5 uM after 12 to 24 hrs by JC-1 dye based fluorescence microscopic analysis; type: functional
[12] = system: SK-OV-3; test: Induction of apoptosis in human SKOV3 cells assessed as increase in cytochrome c level in cytosol at 5 uM after 12 to 24 hrs by Western blot analysis; type: functional, cell-based
[13] = system: SK-OV-3; test: Induction of apoptosis in human SKOV3 cells assessed as caspase-9 cleavage at 5 uM after 12 to 24 hrs by Western blot analysis; type: functional, cell-based
[14] = system: SK-OV-3; test: Induction of apoptosis in human SKOV3 cells assessed as caspase-3 cleavage at 5 uM after 12 to 24 hrs by Western blot analysis; type: functional, cell-based
[15] = system: SK-OV-3; test: Induction of apoptosis in human SKOV3 cells assessed as caspase-3 activity by Ac-DEVD-pNA based spectrophotometric analysis; type: functional, cell-based; details: TDE = time-dependent effect
[16] = system: SK-OV-3; test: Induction of apoptosis in human SKOV3 cells assessed as caspase-9 activity by Ac-LEHD-pNA based spectrophotometric analysis; type: functional, cell-based; details: TDE = time-dependent effect
[17] = system: SK-OV-3; test: Induction of apoptosis in human SKOV3 cells after 12 hrs by Annexin V-FITC/PI staining based flow cytometry; type: functional, cell-based
[18] = system: SK-OV-3; test: Induction of apoptosis in human SKOV3 cells assessed as late apoptotic cells at 3 uM after 12 hrs by Annexin V-FITC/PI staining based flow cytometry (reference value: 1.5%); type: functional
[19] = system: SK-OV-3; test: Induction of apoptosis in human SKOV3 cells assessed as late apoptotic cells at 5 uM after 12 hrs by Annexin V-FITC/PI staining based flow cytometry (reference value: 1.5%); type: functional
[20] = system: SK-OV-3; test: Induction of apoptosis in human SKOV3 cells assessed as early apoptotic cells at 3 uM after 12 hrs by Annexin V-FITC/PI staining based flow cytometry (reference value: 2.8%); type: functional
[21] = system: SK-OV-3; test: Induction of apoptosis in human SKOV3 cells assessed as early apoptotic cells at 5 uM after 12 hrs by Annexin V-FITC/PI staining based flow cytometry (reference value: 2.8%); type: functional
[22] = system: SK-OV-3; test: Induction of ROS generation in human SKOV3 cells at 5 uM after 12 hrs by DCF-DA dye based flow cytometry relative to control; type: functional
[23] = Upregulation of Bax protein expression in human SKOV3 cells at 5 uM after 12 to 24 hrs by Western blot analysis; type: functional, cell-based; details: SK-OV-3
[24] = Downregulation of Bcl-2 protein expression in human SKOV3 cells after 12 to 24 hrs by Western blot analysis; type: functional, cell-based; details: SK-OV-3
[25] = system: SK-OV-3; test: Induction of Fas protein expression in human SKOV3 cells after 12 to 24 hrs by Western blot analysis; type: functional, cell-based
[26] = system: SK-OV-3; test: Induction of apoptosis in human SKOV3 cells assessed as reduction in caspase-8 level in cytoplasm at 5 uM after 12 to 24 hrs by Western blot analysis; type: functional, cell-based
[27] = Cell cycle arrest in human SKOV3 cells assessed as accumulation at G1 phase at 3 uM after 24 hrs by propidium iodide staining based flow cytometry (reference value: 53.38%); type: functional; details: SK-OV-3
[28] = Cell cycle arrest in human SKOV3 cells assessed as accumulation at G2 phase at 3 uM after 24 hrs by propidium iodide staining based flow cytometry (reference value: 8.85%); type: functional; details: SK-OV-3
[29] = Cell cycle arrest in human SKOV3 cells assessed as accumulation at S phase at 3 uM after 24 hrs by propidium iodide staining based flow cytometry (reference value: 37.77%); type: functional; details: SK-OV-3
[30] = Cell cycle arrest in human SKOV3 cells assessed as accumulation at G1 phase at 5 uM after 24 hrs by propidium iodide staining based flow cytometry (reference value: 53.38%); type: functional; details: SK-OV-3
[31] = Cell cycle arrest in human SKOV3 cells assessed as accumulation at G2 phase at 5 uM after 24 hrs by propidium iodide staining based flow cytometry (reference value: 8.85%); type: functional; details: SK-OV-3
[32] = Cell cycle arrest in human SKOV3 cells assessed as accumulation at S phase at 5 uM after 24 hrs by propidium iodide staining based flow cytometry (reference value: 37.77%); type: functional; details: SK-OV-3

## CCOP(=O)(OCC)C(CNc1cccc(NC(=S)NC(=O)[C@]2(C)CCC[C@]3(C)c4ccc(C(C)C)cc4CC[C@@H]23)c1C)P(=O)(OCC)OCC
[1]
  IC50: 17.3 µM
[2]
  IC50: 11.9 µM
[3]
  IC50: 15.7 µM
[4]
  IC50: 11.9 µM
[5]
  IC50: 14.2 µM
[6]
  IC50: 5.98 µM

## O=c1[nH]cc(F)c(=O)[nH]1 [FLUOROURACIL]
[1]
  IC50: 22.4 µM
[2]
  IC50: 30.2 µM
[4]
  IC50: 24.6 µM
[5]
  IC50: 35.5 µM

## CCOP(=O)(OCC)C(CNc1ccc(NC(=S)NC(=O)[C@]2(C)CCC[C@]3(C)c4ccc(C(C)C)cc4CC[C@@H]23)cc1)P(=O)(OCC)OCC
[1]
  IC50: 16.6 µM
[2]
  IC50: 12.1 µM
[3]
  IC50: 15.9 µM
[4]
  IC50: 12.2 µM
[5]
  IC50: 13 µM
[6]
  IC50: 17.8 µM

## CCOP(=O)(OCC)C(CNc1cc(C)c(C)cc1NC(=S)NC(=O)[C@]1(C)CCC[C@]2(C)c3ccc(C(C)C)cc3CC[C@@H]12)P(=O)(OCC)OCC
[1]
  IC50: 19.5 µM
[2]
  IC50: 12.7 µM
[3]
  IC50: 13.8 µM
[4]
  IC50: 13.1 µM
[5]
  IC50: 28.3 µM
[6]
  IC50: 2.56 µM

## CCOP(=O)(OCC)C(CNc1ccccc1NC(=S)NC(=O)[C@]1(C)CCC[C@]2(C)c3ccc(C(C)C)cc3CC[C@@H]12)P(=O)(OCC)OCC
[1]
  IC50: 16.5 µM
[2]
  IC50: 12.5 µM
[3]
  IC50: 15 µM
[4]
  IC50: 11.4 µM
[5]
  IC50: 13.9 µM
[6]
  IC50: 15.3 µM

## CCOP(=O)(OCC)C(CNc1cc(Cl)c(NC(=S)NC(=O)[C@]2(C)CCC[C@]3(C)c4ccc(C(C)C)cc4CC[C@@H]23)cc1Cl)P(=O)(OCC)OCC
[1]
  IC50: 22.1 µM
[2]
  IC50: 24.6 µM
[3]
  IC50: 16.4 µM
[4]
  IC50: 20.2 µM
[5]
  IC50: 24 µM
[6]
  IC50: > 50 µM

## CCOP(=O)(OCC)C(CNc1ccc(Cc2ccc(NC(=S)NC(=O)[C@]3(C)CCC[C@]4(C)c5ccc(C(C)C)cc5CC[C@@H]34)cc2)cc1)P(=O)(OCC)OCC
[1]
  IC50: 28.9 µM
[2]
  IC50: 35.9 µM
[3]
  IC50: 33.6 µM
[4]
  IC50: 25.5 µM
[5]
  IC50: 37.6 µM
[6]
  IC50: 29.5 µM

## CC(C)c1ccc2c(c1)CC[C@H]1[C@](C)(C(=O)O)CCC[C@]21C [DEHYDROABIETIC ACID]
[1]
  IC50: 65.1 µM
[2]
  IC50: 28.7 µM
[3]
  IC50: 55.6 µM
[4]
  IC50: 30.2 µM
[5]
  IC50: 75 µM
[6]
  IC50: 36.3 µM

## CCOP(=O)(OCC)C(CNc1cccc(NC(=S)NC(=O)[C@]2(C)CCC[C@]3(C)c4ccc(C(C)C)cc4CC[C@@H]23)c1)P(=O)(OCC)OCC
[1]
  IC50: 16.5 µM
[2]
  IC50: 10.3 µM
[3]
  IC50: 15.4 µM
[4]
  IC50: 11.3 µM
[5]
  IC50: 13.7 µM
[6]
  IC50: > 50 µM

## CCOP(=O)(OCC)C(CNc1ccc(Sc2ccc(NC(=S)NC(=O)[C@]3(C)CCC[C@]4(C)c5ccc(C(C)C)cc5CC[C@@H]34)cc2)cc1)P(=O)(OCC)OCC
[1]
  IC50: 40.9 µM
[2]
  IC50: 39.2 µM
[3]
  IC50: 38.8 µM
[4]
  IC50: 34.1 µM
[5]
  IC50: 40.9 µM
[6]
  IC50: 1.01 µM

## CCOP(=O)(OCC)C(CNc1ccc(Oc2ccc(NC(=S)NC(=O)[C@]3(C)CCC[C@]4(C)c5ccc(C(C)C)cc5CC[C@@H]34)cc2)cc1)P(=O)(OCC)OCC
[1]
  IC50: 58.9 µM
[2]
  IC50: 31.3 µM
[3]
  IC50: 20 µM
[4]
  IC50: 44.6 µM
[5]
  IC50: 38.2 µM
[6]
  IC50: 40.9 µM

## CCOP(=O)(OCC)C(CNc1ccc(F)cc1NC(=S)NC(=O)[C@]1(C)CCC[C@]2(C)c3ccc(C(C)C)cc3CC[C@@H]12)P(=O)(OCC)OCC
[7]
  Activity: Dose-dependent effect
[8]
  Activity: Active
[9]
  Activity: 33.6%
[10]
  Activity: 49.3%
[11]
  Activity: Active
[12]
  Activity: Active
[13]
  Activity: Active
[14]
  Activity: Active
[15]
  Activity: tde
[16]
  Activity: tde
[1]
  IC50: 1.79 µM
[2]
  IC50: 7.1 µM
[3]
  IC50: 6.93 µM
[4]
  IC50: 6.01 µM
[5]
  IC50: 8.17 µM
[17]
  Activity: Dose-dependent effect
[18]
  Activity: 14.4%
[19]
  Activity: 5.7%
[20]
  Activity: 14.5%
[21]
  Activity: 24.7%
[22]
  fold change (FC): 2
[23]
  Activity: Dose-dependent effect
[24]
  Activity: Dose-dependent effect
[25]
  Activity: Dose-dependent effect
[26]
  Activity: Active
[27]
  Activity: 59.8%
[28]
  Activity: 13.4%
[29]
  Activity: 26.9%
[30]
  Activity: 68.1%
[31]
  Activity: 10.5%
[32]
  Activity: 21.4%
[6]
  IC50: 0.13 µM

## CCOP(=O)(OCC)C(CNc1ccc(S(=O)(=O)c2ccc(NC(=S)NC(=O)[C@]3(C)CCC[C@]4(C)c5ccc(C(C)C)cc5CC[C@@H]34)cc2)cc1)P(=O)(OCC)OCC
[1]
  IC50: 53.9 µM
[2]
  IC50: 32.2 µM
[3]
  IC50: 41.9 µM
[4]
  IC50: 56 µM
[5]
  IC50: 32.7 µM
[6]
  IC50: 0.65 µM
